# What was measured:
# Type in all cases: in vivo
# Abutilon theophrasti = test: Test Example 4: herbicidal effect by application to foliage (diluvial soil, plastic box); conditions: for M: herbicidal effect on Abutilon theophrasti: application to foliage, application herbicide amount 320 g/ha; for M (Abutilon theophrasti) herbicidal effect grade: Application herbicide amount 320 g/ha, foliage application
# Summary of the method: (§1)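 Plants were grown in sterilized diluvial soil in a greenhouse at 25-30° C for 14 days, then sprayed on stems and leaves with water-diluted emulsion formulation at set rates in g/ha. Weed control and crop injury were scored 3 weeks after treatment on a 0-5 herbicidal-ratio scale, from 0 (≤5%) to 5 (≥90%).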
# Chenopodium album = test: as above; conditions: for O: herbicidal effect on Chenopodium album: application to foliage, application herbicide amount 320 g/ha; for O (Chenopodium album) herbicidal effect grade: Application herbicide amount 320 g/ha, foliage application
# Summary of the method: as §1
# Alopecurus myosuroides = test: as above; conditions: for J: herbicidal effect on Alopecurus myosuroides: application to foliage, application herbicide amount 320 g/ha; for J (Alopecurus myosuroides) herbicidal effect grade: Application herbicide amount 320 g/ha, foliage application
# Summary of the method: as §1
# Setaria viridis = test: as above; conditions: for G: herbicidal effect on Setaria viridis: application to foliage, application herbicide amount 320 g/ha; for G (Setaria viridis) herbicidal effect grade: Application herbicide amount 320 g/ha, foliage application
# Summary of the method: as §1
# Digitaria ciliaris = test: as above; conditions: for F: herbicidal effect on Digitaria ciliaris: application to foliage, application herbicide amount 320 g/ha; for F (Digitaria ciliaris) herbicidal effect grade: Application herbicide amount 320 g/ha, foliage application
# Summary of the method: as §1
# Apera spica-venti. = test: as above; conditions: for L: herbicidal effect on Apera spica-venti.: application to foliage, application herbicide amount 320 g/ha; for L (Apera spica-venti.) herbicidal effect grade: Application herbicide amount 320 g/ha, foliage application
# Summary of the method: as §1
# Stellaria media = test: as above; conditions: for P: herbicidal effect on Stellaria media: application to foliage, application herbicide amount 320 g/ha; for P (Stellaria media) herbicidal effect grade: Application herbicide amount 320 g/ha, foliage application
# Summary of the method: as §1
# Amaranthus retroflexus = test: as above; conditions: for N: herbicidal effect on Amaranthus retroflexus: application to foliage, application herbicide amount 320 g/ha; for N (Amaranthus retroflexus) herbicidal effect grade: Application herbicide amount 320 g/ha, foliage application
# Summary of the method: as §1
# Veronica persica = test: as above; conditions: for R: herbicidal effect on Veronica persica: application to foliage, application herbicide amount 320 g/ha; for R (Veronica persica) herbicidal effect grade: Application herbicide amount 320 g/ha, foliage application
# Summary of the method: as §1
# [1] = tested on: Echinochloa crus-galli var. crus-galli; test: Test Example 3: herbicidal effect by application to foliage (Wagner pot, water depth 0.1-0.5 cm); conditions: Nineteenth Table; application to foliage; application herbicide amount 320 g/ha
# Summary of the method: (§2)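 Visual 0–5 rating of herbicidal ratio, taken 3 weeks after foliar spray of a diluted emulsion formulation at rates expressed as g/ha. Plants had been sown in alluvial soil under 0.1–0.5 cm water and grown 14 days at 25–30 °C under glass before application.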
# Leptochloa chinensis = test: as above; conditions: Nineteenth Table; application to foliage; application herbicide amount 320 g/ha
# Summary of the method: as §2
# Cyperus difformis = test: as above; conditions: Nineteenth Table; application to foliage; application herbicide amount 320 g/ha
# Summary of the method: as §2
SMILES,M: herbicidal effect on Abutilon theophrasti (Abutilon theophrasti),O: herbicidal effect on Chenopodium album (Chenopodium album),J: herbicidal effect on Alopecurus myosuroides (Alopecurus myosuroides),G: herbicidal effect on Setaria viridis (Setaria viridis),F: herbicidal effect on Digitaria ciliaris (Digitaria ciliaris),L: herbicidal effect on Apera spica-venti. (Apera spica-venti.),P: herbicidal effect on Stellaria media (Stellaria media),N: herbicidal effect on Amaranthus retroflexus (Amaranthus retroflexus),H (herbicidal effect grade) [1],D (herbicidal effect grade) (Leptochloa chinensis),E (herbicidal effect grade) (Cyperus difformis),M (Abutilon theophrasti) herbicidal effect grade (Abutilon theophrasti),O (Chenopodium album) herbicidal effect grade (Chenopodium album),J (Alopecurus myosuroides) herbicidal effect grade (Alopecurus myosuroides),G (Setaria viridis) herbicidal effect grade (Setaria viridis),F (Digitaria ciliaris) herbicidal effect grade (Digitaria ciliaris),L (Apera spica-venti.) herbicidal effect grade (Apera spica-venti.),P (Stellaria media) herbicidal effect grade (Stellaria media),N (Amaranthus retroflexus) herbicidal effect grade (Amaranthus retroflexus),R (Veronica persica) herbicidal effect grade (Veronica persica),other results
Cn1nnnc1NC(=O)c1ccc(C(F)(F)F)n2c(Cl)nnc12 [2-008],5 (Herbicidal ratio of 90% or more (almost completely withered)),5 (Herbicidal ratio of 90% or more (almost completely withered)),1 (Herbicidal ratio of 5% or more and less than 20%),2 (Herbicidal ratio of 20% or more and less than 40%),3 (Herbicidal ratio of 40% or more and less than 70%),1 (Herbicidal ratio of 5% or more and less than 20%),5 (Herbicidal ratio of 90% or more (almost completely withered)),5 (Herbicidal ratio of 90% or more (almost completely withered)),4 (Herbicidal ratio of 70% or more and less than 90%),5 (Herbicidal ratio of 90% or more (almost completely withered)),4 (Herbicidal ratio of 70% or more and less than 90%),–,–,–,–,–,–,–,–,–,R: herbicidal effect on Veronica persica (Veronica persica): 4 (Herbicidal ratio of 70% or more and less than 90%)
CC(C)c1nnc2c(C(=O)N(C)c3nnnn3C)ccc(C(F)(F)F)n12 [2-023],3 (Herbicidal ratio of 40% or more and less than 70%),4 (Herbicidal ratio of 70% or more and less than 90%),0 (Herbicidal ratio of 5% or less (almost no effect)),1 (Herbicidal ratio of 5% or more and less than 20%),1 (Herbicidal ratio of 5% or more and less than 20%),0 (Herbicidal ratio of 5% or less (almost no effect)),3 (Herbicidal ratio of 40% or more and less than 70%),5 (Herbicidal ratio of 90% or more (almost completely withered)),4 (Herbicidal ratio of 70% or more and less than 90%),1 (Herbicidal ratio of 5% or more and less than 20%),0 (Herbicidal ratio of 5% or less (almost no effect)),–,–,–,–,–,–,–,–,–,R: herbicidal effect on Veronica persica (Veronica persica): 4 (Herbicidal ratio of 70% or more and less than 90%)
Cn1nnnc1NC(=O)c1ccc(C(F)(F)F)n2c(COCC(F)(F)F)nnc12 [2-015],5 (Herbicidal ratio of 90% or more (almost completely withered)),5 (Herbicidal ratio of 90% or more (almost completely withered)),2 (Herbicidal ratio of 20% or more and less than 40%),4 (Herbicidal ratio of 70% or more and less than 90%),5 (Herbicidal ratio of 90% or more (almost completely withered)),2 (Herbicidal ratio of 20% or more and less than 40%),4 (Herbicidal ratio of 70% or more and less than 90%),5 (Herbicidal ratio of 90% or more (almost completely withered)),5 (Herbicidal ratio of 90% or more (almost completely withered)),5 (Herbicidal ratio of 90% or more (almost completely withered)),5 (Herbicidal ratio of 90% or more (almost completely withered)),–,–,–,–,–,–,–,–,–,R: herbicidal effect on Veronica persica (Veronica persica): 3 (Herbicidal ratio of 40% or more and less than 70%)
CC(C)c1nnc2c(C(=O)Nc3nnc(C[S+](C)[O-])o3)ccc(C(F)(F)F)n12 (stereo not drawn) [1-143],–,–,–,–,–,–,–,–,4 (Herbicidal ratio of 70% or more and less than 90%),2 (Herbicidal ratio of 20% or more and less than 40%),4 (Herbicidal ratio of 70% or more and less than 90%),2 (Herbicidal ratio of 20% or more and less than 40%),4 (Herbicidal ratio of 70% or more and less than 90%),0 (Herbicidal ratio of 5% or less (almost no effect)),0 (Herbicidal ratio of 5% or less (almost no effect)),2 (Herbicidal ratio of 20% or more and less than 40%),0 (Herbicidal ratio of 5% or less (almost no effect)),3 (Herbicidal ratio of 40% or more and less than 70%),2 (Herbicidal ratio of 20% or more and less than 40%),3 (Herbicidal ratio of 40% or more and less than 70%),–
O=C(Nc1nnco1)c1ccc(C(F)(F)F)n2c(-c3ccc(F)cc3)nnc12 [1-147],–,–,–,–,–,–,–,–,5 (Herbicidal ratio of 90% or more (almost completely withered)),5 (Herbicidal ratio of 90% or more (almost completely withered)),3 (Herbicidal ratio of 40% or more and less than 70%),3 (Herbicidal ratio of 40% or more and less than 70%),5 (Herbicidal ratio of 90% or more (almost completely withered)),2 (Herbicidal ratio of 20% or more and less than 40%),3 (Herbicidal ratio of 40% or more and less than 70%),4 (Herbicidal ratio of 70% or more and less than 90%),3 (Herbicidal ratio of 40% or more and less than 70%),5 (Herbicidal ratio of 90% or more (almost completely withered)),4 (Herbicidal ratio of 70% or more and less than 90%),5 (Herbicidal ratio of 90% or more (almost completely withered)),–
Cc1nnc(NC(=O)c2ccc(C(F)(F)F)n3c(N(C)C4CCCCC4)nnc23)o1 [1-133],–,–,–,–,–,–,–,–,4 (Herbicidal ratio of 70% or more and less than 90%),2 (Herbicidal ratio of 20% or more and less than 40%),0 (Herbicidal ratio of 5% or less (almost no effect)),3 (Herbicidal ratio of 40% or more and less than 70%),4 (Herbicidal ratio of 70% or more and less than 90%),0 (Herbicidal ratio of 5% or less (almost no effect)),0 (Herbicidal ratio of 5% or less (almost no effect)),3 (Herbicidal ratio of 40% or more and less than 70%),0 (Herbicidal ratio of 5% or less (almost no effect)),4 (Herbicidal ratio of 70% or more and less than 90%),3 (Herbicidal ratio of 40% or more and less than 70%),2 (Herbicidal ratio of 20% or more and less than 40%),–
Cc1nnc(NC(=O)c2ccc(C(F)(F)F)n3c(N4CCSCC4)nnc23)o1 [1-118],–,–,–,–,–,–,–,–,5 (Herbicidal ratio of 90% or more (almost completely withered)),5 (Herbicidal ratio of 90% or more (almost completely withered)),3 (Herbicidal ratio of 40% or more and less than 70%),4 (Herbicidal ratio of 70% or more and less than 90%),5 (Herbicidal ratio of 90% or more (almost completely withered)),1 (Herbicidal ratio of 5% or more and less than 20%),5 (Herbicidal ratio of 90% or more (almost completely withered)),5 (Herbicidal ratio of 90% or more (almost completely withered)),3 (Herbicidal ratio of 40% or more and less than 70%),4 (Herbicidal ratio of 70% or more and less than 90%),4 (Herbicidal ratio of 70% or more and less than 90%),5 (Herbicidal ratio of 90% or more (almost completely withered)),–
